Target: GSK-3 (Homo sapiens, UniProt P49841)
Assay: GSK-3 inhibition, cell-free 33P-ATP peptide substrate SPA assay
Format: biochemical
Details: read-out: inhibitory activity against GSK-3, expressed as IC50
Method: The specific activity of a compound, stereoisomer, or prodrug of formula (I) in inhibiting GSK-3 can be determined in both cell-free and cell-based assays, both of which have been previously described in the relevant art. See, for example, U.S. Pat. Nos. 6,417,185 and 6,489,344, the disclosures of which are incorporated herein by reference in their entirety.
A cell-free assay can be generally carried out by incubating GSK-3 with a peptide substrate, radiolabeled ATP (e.g., for example, γ^33P- or γ^32P-ATP, both of which are available from Amersham; Arlington Heights, Ill.), magnesium ions, and the compound to be assayed. […] The amount of γ^33P or […] remaining in each well after washing is then quantified to determine the amount of radiolabeled phosphate incorporated into the peptide substrate. […]
Another example of a GSK-3 assay, similar to the one described hereinabove, is as follows: enzyme activities are assayed as the incorporation of ^33P from gamma phosphate of ^33P-ATP (Amersham; Arlington Heights, Ill.; catalog #AH-9968) into biotinylated peptide substrate PKTP-KKAKKL. […] The final concentration of ATP is 0.5 μM (final specific radioactivity of […]), and the final concentration of substrate is 0.75 μM. […] Radioactivity associated with the beads is then quantified by scintillation counting. […]

Sequence of GSK-3 (P49841 whole entry): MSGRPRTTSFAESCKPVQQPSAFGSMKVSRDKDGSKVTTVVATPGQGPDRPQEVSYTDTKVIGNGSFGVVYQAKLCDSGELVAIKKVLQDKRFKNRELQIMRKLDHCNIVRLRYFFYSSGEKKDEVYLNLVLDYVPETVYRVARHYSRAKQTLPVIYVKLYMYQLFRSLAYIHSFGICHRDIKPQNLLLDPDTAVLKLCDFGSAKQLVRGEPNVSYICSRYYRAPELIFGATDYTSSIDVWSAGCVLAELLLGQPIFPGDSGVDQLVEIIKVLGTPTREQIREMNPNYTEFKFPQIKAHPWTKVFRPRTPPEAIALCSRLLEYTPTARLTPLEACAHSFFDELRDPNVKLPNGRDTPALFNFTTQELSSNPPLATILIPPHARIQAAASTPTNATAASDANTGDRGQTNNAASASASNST

IC50: 6.5 nM
Compound: COc1nccc(C2CC(=O)Nc3n[nH]c(C4CCC4)c32)n1 (stereo not shown) [Example 45, 3-Cyclobutyl-4-(2-methoxy-pyrimidin-4-yl)-2,4,5,7-tetrahydro-pyrazolo[3,4-b]pyridin-6-one]
